Article PMC10043283, “Neuraminidase 1 promotes renal fibrosis development in male mice” (Nature Communications, 2023)
Read-outs that look alike come from different tables or passages of the source.

Target: T1, NEU1 (neuraminidase 1) (Homo sapiens, UniProt Q99519)
T1 construct: recombinant human NEU1 protein
Experiment: SPR (Biacore T200, NEU1 immobilized on CM5 chip)
Assay type: binding

With `O=C(/C=C/c1ccc(O)c(O)c1/C=C/c1ccc(O)c(O)c1)O[C@H](Cc1ccc(O)c(O)c1)C(=O)O` [SaA, salvianolic acid A] the Kd (read-out: Kd) was 52300 nM.
In the case of `O=C(/C=C/c1ccc(O)c2c1[C@H](C(=O)O[C@H](Cc1ccc(O)c(O)c1)C(=O)O)[C@@H](c1ccc(O)c(O)c1)O2)O[C@H](Cc1ccc(O)c(O)c1)C(=O)O` [SaB, salvianolic acid B], the Kd (read-out: Kd) is reported as 21.6 nM.
`O=C(/C=C/c1ccc(O)c(O)c1)O[C@H](Cc1ccc(O)c(O)c1)C(=O)O` [rosmarinic acid] showed a Kd of 141 nM.
